Test results as given in US9261498B2, “Biomarker for sensitivity to mTOR inhibitor therapy in kidney cancer” (The Regents of the University of California, priority 2005, dated 2016).

Tested on: VEGF
Experiment: VEGF ELISA of conditioned media
Format: cell-based, human
Conditions: VHL knockdown cells, 10 nM CCI-779, 36 hours, normalized to total cellular protein
Procedure: FIGS. 2A-2C. Effects of VHL knockdown on angiogenesis. (a) Microvessel density was quantified by CD-31 immunolabeling (arrows) in the xenograft tumors, and difference between CCI-779 treated (+) and vehicle (−) treated mice quantified (n=6 in each group). P<0.0033 for microvessel density counts in VHL shRNA compared to vector only (see blue bars). (b) Similar number of cells were plated and maintained in 10% serum rich media, in the presence (+) or absence (−) of 10 nM CCI-779. Thirty-six hours later, conditioned media was analyzed by anti-VEGF ELISA and cell extracts prepared for protein quantification. VEGF values were normalized to total cellular protein. Error bars equal one standard deviation (n=3). […] Bound antibody was detected using enhanced chemiluminescence (ECL, Amersham). For VEGF ELISA quantification, cells were plated in 6 well plates (1×10^5 per well). […] Thirty-six hours later, VEGF ELISA (R&D Systems) was performed according to the manufacturer's instructions, using a Fisher Plate reader. […] Bound antibody was detected using enhanced chemiluminescence (ECL, Amersham). For VEGF ELISA quantification, cells were plated in 6 well plates (1×10^5 per well). […] Thirty-six hours later, VEGF ELISA (R&D Systems) was performed according to the manufacturer's instructions, using a Fisher Plate reader. […]

For CO[C@H]1C[C@@H]2CC[C@@H](C)[C@@](O)(O2)C(=O)C(=O)N2CCCC[C@H]2C(=O)O[C@H]([C@H](C)C[C@@H]2CC[C@@H](OC(=O)C(C)(CO)CO)[C@H](OC)C2)CC(=O)[C@H](C)/C=C(\C)[C@@H](O)[C@@H](OC)C(=O)[C@H](C)C[C@H](C)/C=C/C=C/C=C/1C [CCI-779], which “reduction of secreted VEGF levels” value is on record?
Its value is 2 fold.
